Test results reported in patent US9499493B2, “2,4-pyrimidinediamine compounds and their uses” (Rigel Pharmaceuticals, Inc., priority 2002, dated 2016).
pIC50: −log10 of the molar value. Structures can show the parent of a compound that is named as a salt.

Tested on: cultured human mast cells (CHMC)
Experiment: CHMC low cell density ionomycin activation: tryptase assay
Format: cell-based
Conditions: not given

Q: How did the pIC50 turn out when “5-Cyano-N2-(3,4-ethylenedioxyphenyl)-N4-(methoxycarbonylbenzyl)-2,4-pyrimidinediamine [R925820]” was run?
A: < 5.00

Q: “5-Cyano-N2-(3-hydroxyphenyl)-N4-(methoxycarbonylbenzyl)-2,4-pyrimidinediamine [R925821]” was tested. Which pIC50 did it give?
A: < 5.00

Q: “5-Fluoro N4-(3-hydroxyphenyl)-N2-(5-methyl-4-oxazolyl-2-phenyl)-2,4-pyrimidinediamine [R926779]” was tested. Which pIC50 did it give?
A: < 5.00

Q: How did the pIC50 turn out when `CC1Sc2ccc(Nc3ncc(F)c(Nc4cccc(O)c4)n3)cc2NC1=O` (racemic) [R909263, (+/−)-5-Fluoro-N4-(3-hydroxyphenyl]-N2-(2-methyl-1,4-benzothiazin-3-on-6-yl)pyrimidinediamine] was run?
A: < 5.00

Q: `COC(=O)C(C)Oc1ccc(Nc2ccnc(Nc3ccc(OC(C)C(=O)OC)cc3)n2)cc1` (racemic) [R926257, (±)-N2,N4-Bis[4-methoxycarbonyhalpha-methypmethyleneoxyphenyl]-2,4-pyrimidinediamine] was tested. Which pIC50 did it give?
A: 5.12

Q: With `CNC(=O)COc1cccc(Nc2ncc(F)c(Nc3ccc(OC)c(Cl)c3)n2)c1` [R926891, N4-(3-Chloro-4-methoxyphenyl)-5-fluoro-N2-[3-[(N-methylamino)carbonylmethyleneoxy]phenyl]-2,4-pyrimidinediamine] as the compound, how does the pIC50 read?
A: < 5.00

Q: How did the pIC50 turn out when `CNC(=O)COc1cccc(Nc2ncc(F)c(Nc3ccc(OC)c(F)c3)n2)c1` [R926892, 5-Fluoro-N4-(3-fluoro-4-methoxyphenyl)-N2-[3-[(N-methylamino)carbonylmethyleneoxy]phenyl]-2,4-pyrimidinediamine] was run?
A: < 5.00

Q: `CNC(=O)C(C)(C)Oc1cccc(Nc2ncc(F)c(Nc3cccc(O)c3)n2)c1` [R926913, 5-Fluoro-N4-(3-hydroxyphenyl)-N2-[3-[(N-methylamino)carbonyl-1,1-dimethylmethyleneoxy]phenyl]-2,4-pyrimidinediamine] was tested. Which pIC50 did it give?
A: < 5.00

Q: How did the pIC50 turn out when `CNC(=O)COc1cc(Nc2ncc(F)c(Nc3cccc(O)c3)n2)cc(OCC(=O)NC)c1` [R926930, N2-[3,5-Bis[(N-methylamino)carbonylmethyleneoxy]phenyl]-5-fluoro-N4-(3-hydroxyphenyl)-2,4-pyrimidinediamine] was run?
A: < 5.00

Q: `Cc1noc(COc2ccc(Nc3nc(Nc4ccc5c(c4)OCCO5)ncc3F)cc2)n1` [R935145, N2-(3,4-Ethylenedioxyphenyl)-5-fluoro-N4-[4-(3-methyl-1,2,4-oxadiazol-5-yl)methyleneoxyphenyl]-2,4-pyrimidinediamine] was tested. Which pIC50 did it give?
A: < 5.00

Q: With `CNC(=O)C(C)(Oc1cccc(Nc2ncc(F)c(Nc3ccc(OC(C)C)cc3)n2)c1)C(=O)NC` [R935196, N2-[3-(1-Bis(N-methylaminocarbonyl)ethoxy)phenyl]-5-fluoro-N4-(4-isopropoxyphenyl)-2,4-pyrimidineamine] as the compound, how does the pIC50 read?
A: < 5.00

Q: `Oc1cccc(Nc2nc(Nc3ccc4[nH]ncc4c3)ncc2F)c1` [R935199, 5-Fluoro-N4-(3-hydroxyphenyl)-N2-(indazoline-5-yl)-2,4-pyrimidinediamine] was tested. Which pIC50 did it give?
A: < 5.00

Q: How did the pIC50 turn out when `CCOC(=O)CCn1ncc2ccc(Nc3nc(Nc4cccc(O)c4)ncc3F)cc21` [R935292, N4-[1-(2-Ethoxycarbonylethyl)indazoline-6-yl]-5-fluoro-N2-(3-hydroxyphenyl)-2,4-pyrimidinediamine] was run?
A: < 5.00

Q: `OCCCn1ncc2ccc(Nc3ncc(F)c(Nc4cccc(O)c4)n3)cc21` [R935293, 5-Fluoro-N4-(3-hydroxyphenyl)-N2-[1-(3-hydroxypropyl)indazoline-6-yl]-2,4-pyrimidinediamine] was tested. Which pIC50 did it give?
A: < 5.00

Q: With `COC(=O)c1cc2cc(Nc3ncc(F)c(Nc4ccc5cnn(CCC(=O)O)c5c4)n3)ccc2o1` [R935296, N4-[1-(2-carboxyethyl)indazolne-6-yl]-5-fluoro-N2-(2-methoxycarbonylbenzofur-5-yl)-2,4-pyrimidinediamine] as the compound, how does the pIC50 read?
A: < 5.00

Q: How did the pIC50 turn out when `COC(=O)c1ccc(Cn2cc3ccc(Nc4ncc(F)c(Nc5ccc6c(c5)OCCO6)n4)cc3n2)c(OC)c1` [R935336, N4-(3,4-Ethylenedioxyphenyl)-5-fluoro-N2-[2-(2-methoxy-4-carbomethoxybenzyl)indazoline-6-yl]-2,4-pyrimidinediamine] was run?
A: < 5.00

Q: `CCOC(=O)CCn1ncc2cc(Nc3ncc(F)c(Nc4ccc(OC(F)(F)F)c(Cl)c4)n3)ccc21` [R935354, N4-(3-Chloro-4-trifluoromethoxy-phenyl)-N2-[1-(2-ethoxycarbonylethyl)indazoline-5-yl]-5-fluoro-2,4-pyrimidinediamine] was tested. Which pIC50 did it give?
A: < 5.00

Q: How did the pIC50 turn out when `Cn1ncc2cc(Nc3ncc(F)c(Nc4ccc5c(c4)OC(F)(F)O5)n3)ccc21` [R935357, N4-(3,4-Difluoromethylendioxyphenyl)-5-fluoro-N2-(1-methylindazoline-5-yl)-2,4-pyrimidinediamine] was run?
A: < 5.00

Q: `Fc1cnc(Nc2ccc3cn[nH]c3c2)nc1Nc1cccc(OC(F)(F)F)c1` [R935363, 5-Fluoro-N2-(indazoline-6-yl)-N4-(3-trifluoromethoxyphenyl)-2,4-pyrimidinediamine] was tested. Which pIC50 did it give?
A: < 5.00

Q: How did the pIC50 turn out when `COc1cc(Nc2ncc(F)c(Nc3ccc(OCc4nc(-c5ccccc5)no4)cc3)n2)cc(OC)c1OC` [R935367, 5-Fluoro-N4-[4-(3-phenyl-1,2,4-oxadiazol-5-yl)methyleneoxyphenyl]-N2-(3,4,5-trimethoxyphenyl)-2,4-pyrimidinediamine] was run?
A: < 5.00

Q: `CNC(=O)CCn1ncc2cc(Nc3ncc(F)c(Nc4ccc(OC(F)(F)F)c(Cl)c4)n3)ccc21` [R935369, N4-(3-Chloro-4-trifluoromethoxyphenyl)-5-fluoro-N2-[1-[2(N-methylaminocarbonyl)ethyl]indazoline-5-yl]-2,4-pyrimidinediamine] was tested. Which pIC50 did it give?
A: < 5.00

Q: With `Cc1cc(Nc2nc(Nc3cccc(OCCN4CCOCC4)c3)ncc2F)cc(C)c1O` [R940255, N4-(3,5-Dimethyl-4-hydroxyphenyl)-5-fluoro-N2-[3-[2-(N-morpholino)ethyleneoxy]phenyl]-2,4-pyrimidinediamine] as the compound, how does the pIC50 read?
A: < 5.00

Q: `Cc1cc(Nc2nc(Nc3cccc(OCCN4CCOCC4)c3)ncc2F)cc(C)c1O` [R940256, N4-(3,5-Dimethyl-4-hydroxyphenyl)-5-fluoro-N2-[3-[2-(N-morpholino)ethyloxy]phenyl]-2,4-pyrimidinediamine Hydrogen Chloride Salt] was tested. Which pIC50 did it give?
A: < 5.00

Q: How did the pIC50 turn out when `CC(C)(CO)NC(=O)COc1cccc(Nc2ncc(F)c(Nc3cccc(C(C)(C)C)c3)n2)c1` [R940308, N4-(3-tert-Butylpheny)-5-fluoro-N2-[3-(1,1-dimethyl-2-hydroxyethylaminocarbonylmethyleneoxy)-phenyl]-2,4-pyrimidinediamine] was run?
A: 5.38

Q: With `N#CCOc1ccc(Nc2ncc(F)c(Nc3cccc(O)c3)n2)cc1` [R945070, N2-(4-Cyanomethyleneoxyphenyl)-5-fluoro-N4-(3-hydroxyphenyl)-2,4-pyrimidinediamine] as the compound, how does the pIC50 read?
A: < 5.00

Q: With `COC(=O)COc1ccc(Nc2ncc(F)c(Nc3cccc(C#N)c3)n2)cc1` [R945110, N4-(3-Cyanophenyl)-5-fluoro-N2-(4-methoxycarbonylmethyleneoxyphenyl)-2,4-pyrimidinediamine] as the compound, how does the pIC50 read?
A: < 5.00

Q: With `OCCNc1cccc(Nc2ncc(F)c(Nc3cccc(NCCO)c3)n2)c1` [R950181, N2,N4-Bis(3-hydroxyethyleneaminophenyl)-5-fluoro-2,4-pyrimidinediamine] as the compound, how does the pIC50 read?
A: < 5.00

Q: `O=C(CNc1cccc(Nc2ncc(F)c(Nc3ccc4c(c3)OCCO4)n2)c1)NCCO` [R950195, N4-(3,4-Ethylenedioxyphenyl)-5-fluoro-N2-[3-(N-2-hydroxyethyleneamino)carbonylmethyleneaminophenyl]-5-fluoro-2,4-pyrimidinediamine] was tested. Which pIC50 did it give?
A: < 5.00

Q: With `CSc1nc2ccc(Nc3ncc(F)c(Nc4cccc(O)c4)n3)cc2s1` [R950212, 5-Fluoro-N4-(3-hydroxyphenyl)-N2-[2-(methylthio)-1,3-benzothiaz-6-yl)-2,4-pyrimidinediamine] as the compound, how does the pIC50 read?
A: < 5.00

Q: With `CNC(=O)COc1cccc(Nc2ncc(F)c(Nc3cccc([N+](=O)[O-])c3)n2)c1` [R950261, N4-(3-Nitrophenyl)-5-fluoro-N2-[3-(N-methylamino)carbonylmethyleneoxyphenyl]-2,4-pyrimidinediamine] as the compound, how does the pIC50 read?
A: < 5.00

Q: `CNC(=O)COc1cccc(Nc2ncc(F)c(Nc3cccc(NCCO)c3)n2)c1` [R950265, N4-(3-N-Hydroxyethylaminophenyl)-5-fluoro-N2-[3-(N-methylamino)carbonylmethyleneoxyphenyl]-2,4-pyrimidinediamine] was tested. Which pIC50 did it give?
A: < 5.00

Q: With `CNC(=O)COc1cccc(Nc2ncc(F)c(Nc3cccc(N(CCO)CCO)c3)n2)c1` [R950266, N4-(3-Bis(N-hydroxyethyl)aminophenyl)-5-fluoro-N2-[3-(N-methylamino)carbonylmethyleneoxyphenyl]-2,4-pyrimidinediamine] as the compound, how does the pIC50 read?
A: < 5.00

Q: `CNC(=O)COc1cccc(Nc2ncc(F)c(Nc3ccc4c(c3)C(N)CCO4)n2)c1` (stereo not drawn) [R950368, N4-(4-Amino-3,4-dihydro-2H-1-benzopyran-6-yl)-5-fluoro-N2-[3-(N-methylamino)carbonylmethyleneoxyphenyl]-2,4-pyrimidinediamine] was tested. Which pIC50 did it give?
A: < 5.00

Q: `CNC(=O)COc1cccc(Nc2ncc(F)c(Nc3ccc4c(c3)C(N=[N+]=[N-])CCO4)n2)c1` (stereo not drawn) [R950383, N4-(4-Azido-3,4-dihydro-2H-1-benzopyran-6-yl)-5-fluoro-N2-[3-(N-methylamino)carbonylmethyleneoxyphenyl]-2,4-pyrimidinediamine] was tested. Which pIC50 did it give?
A: < 5.00

Q: With `CCOc1ccc(Nc2nc(Nc3cccc(OCC(=O)NC)c3)ncc2F)cc1S(=O)(=O)O` [R950389, N4-(4-Ethoxy-3-hydroxysulfonylphenyl)-5-fluoro-N2-[3-(N-methylamino)carbonylmethyleneoxyphenyl]-2,4-pyrimidinediamine] as the compound, how does the pIC50 read?
A: < 5.00

Q: With “N4-(3,4-Ethylenedioxyphenyl)-5-fluoro-N2-[3-(2-N-methylaminoethyl)phenyl]-2,4-pyrimidinediamine Hydrogen Chloride Salt [R926509]” as the compound, how does the pIC50 read?
A: < 5.00

Same assay, conditions: Homo sapiens, Mast cell

Q: `CNC(=O)CNc1cccc(Nc2ncc(F)c(Nc3cccc(O)c3)n2)c1` [R950218] was tested. Which pIC50 did it give?
A: < 5.00

Tested on: cultured human mast cells (CHMC)
Experiment: CHMC low cell density IgE activation: tryptase assay
Format: cell-based
Conditions: anti-IgE
Summary of the method: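 CHMC resuspended in pre-warmed MT buffer at 1000-1500 cells/well (donor-dependent) and preincubated 1 hr at 37° C, then stimulated with anti-IgE for 30 min at 37° C; unstimulated wells got MT alone. Supernatant tryptase activity read with tryptase substrate after 30 min at room temperature.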

Q: With “5-Cyano-N2-(3,4-ethylenedioxyphenyl)-N4-(methoxycarbonylbenzyl)-2,4-pyrimidinediamine [R925820]” as the compound, how does the pIC50 read?
A: < 5.00

Q: “5-Cyano-N2-(3-hydroxyphenyl)-N4-(methoxycarbonylbenzyl)-2,4-pyrimidinediamine [R925821]” was tested. Which pIC50 did it give?
A: < 5.00

Q: “5-Fluoro N4-(3-hydroxyphenyl)-N2-(5-methyl-4-oxazolyl-2-phenyl)-2,4-pyrimidinediamine [R926779]” was tested. Which pIC50 did it give?
A: < 5.00

Q: With `CC1Sc2ccc(Nc3ncc(F)c(Nc4cccc(O)c4)n3)cc2NC1=O` (racemic) [R909263, (+/−)-5-Fluoro-N4-(3-hydroxyphenyl]-N2-(2-methyl-1,4-benzothiazin-3-on-6-yl)pyrimidinediamine] as the compound, how does the pIC50 read?
A: 6.54

Q: `COC(=O)C(C)Oc1ccc(Nc2ccnc(Nc3ccc(OC(C)C(=O)OC)cc3)n2)cc1` (racemic) [R926257, (±)-N2,N4-Bis[4-methoxycarbonyhalpha-methypmethyleneoxyphenyl]-2,4-pyrimidinediamine] was tested. Which pIC50 did it give?
A: 5.82
